Source: publication PMC6452685, “Lysyl-tRNA synthetase as a drug target in malaria and cryptosporidiosis” (Proceedings of the National Academy of Sciences of the …, 2019)
Read-outs that look alike come from different tables or passages of the source.

Columns and labels:
HepG2 cells = test: HepG2 cytotoxicity; type: cell-based; conditions: Homo sapiens
Source text: 3.2 Cytotoxicity Studies (Dundee)
In vi t ro cy totox i ci ty s tudies can be ca rri ed out us i ng Hep G 2 (Human C aucas i an hepatocy te ca rci noma, ECACC cat. no. 850 114 30) us ed as i ndi cators f or g eneral mammal i an cel l tox i ci ty . […]
3.3 In vitro Cell Assay D ata Analysis (Du ndee) […]
as 0%. Qual i ty control c ri teri a for passi ng pl ates were as fol l ow s : Z’ > 0.
< 15 . T he f ormula used to calculate Z’ is 1- 3´ (St D e v _ hi gh + St D e v_ low) . […]
Al l EC50 Curve fitti ng was undertaken usi ng XLFi t versi on 4.2 usi ng Model 205 wi th the foll owi ng 4 paramet ri c equat i on: A + (?-A) ,where A=% i nhi bi ti on at bo ttom, B=% i nhi bi ti on at top, C= EC , […]
D= slope, x= inhibitor concentration a nd y= % inhibition. […]
was fixed to 100 only when at least 50% of inhibition was reached. […]

[1] = Intrinsic clearance in mouse liver microsomes; type: in vitro ADME
Protocol: 4.4 Int r ins ic C le ar ance (CLi) experiments […]
HUE50H ). The procedure was carried out as reported prev i ous l y (15). […] Immediately, at time zero, then at 3, 6, 9, 15 and 30 min an aliquot ( 50 μl) o f the i ncubati on mi x ture was remov ed and mi x ed with acetonitrile (100 μl) contai ni ng i nternal s tandard to stop the reaction. […] XLfi t software (I DBS, Guildford UK) was used to cal cul ate the exponenti al decay and consequentl y the rate cons tant (ke-1) from the rati o of peak area of tes t compou nd to i nternal s tandard at each ti me poi nt .
The rate o f i ntri nsi c cl earance (CLi ) of each test compoun d was then cal cul ated usi ng the f ol l owi ng […]
CLi (ml /mi n/g li ver) = ke-1 x V x Microsomal protein yield […]
where V (ml/mg protein) is the incubation volume/mg protein added (0.5) and microsomal protein yield is taken as being 52.5 mg protein per g liver. Verapami l (0. 5 µ M ) w as us ed as a pos i t i v e cont rol to confirm ac ceptable assay performance. […]
Cryopreserved mouse (batch MC539) and huma n (batch HU E50H) hepatocytes were supplied by ThermoFi sher Sci enti fi c, Pai sl ey, UK and Xenotech, LLC, respectively. Cryopreserved hepatocytes were rapidly thawed in a pre-heat ed w at er bat h at 37 °C before ad di ng to 50 ml of pre-warmed CHRM medi a (ThermoFi sher Sci enti fi c, Paisley, UK) and mi xed gentl y. […] […] 5 mi l li on v i abl e cel l s /ml i n s uppl emented W ME. Onl y s us pens i ons whi ch ac hi ev ed >80% pos t-thaw viability were us ed i n ex peri ment s . […]
DMSO and 0.25 million cells/ml. […]

PfKRS1 = PfKRS1 (Plasmodium falciparum, UniProt Q8IDJ8); test: Recombinant KRS thermal shift assay, PfKRS1; type: binding; set-up: recombinant PfKRS1 (77–583 and 80–583); 6xHis (N); made in house; host or cells: E. coli Rosetta BL21(DE3), vector pAVA0421; conditions: 40 µM inhibitor
Protocol: 2.9 Recombin ant KR S thermal shift assays ( UW)
Recombi nant PfKRS1, CpKRS, and HsKRS were di l u ted to 4 µM in assay buffe r c ontaining 20 mM Tris-HC l pH 8, 200 mM NaC l , 5 mM DTT, 5 mM MgC l2 and l i gands (1 mM lysi ne; 40 µM ATP; and 40 µM inhibitors) in various combinations. Ali quot s (10 µl) were added to a 96-well PCR plate and incubated at ambi ent temperature for 15 mi n. SYPRO® Ora n g e dye (I nv itrog en) was di l uted i n ass ay buffer to a 5x concent rat i on a nd 1 0 µl was added to t he P C R pl at e t o bri ng t he fi nal as s ay v ol ume t o 20 µl. The pl at e w as s eal ed and pul s e cent ri fug ed t o cons ol i dat e t he as s ay mix t ure and remov e ai r bu bbl es .
Us i ng a StepOne Pl us RT-PCR thermal cycler (Ap plied Biosystems) to monitor fluorescence at a n excitation/emission wavelength of 300/470-570 nm, the samples were heated from 25° C to 99° C at a ramp rate of .016° C/sec. Graphpa d® P rism software (GraphPad S oftware, San Diego, CA) was used to determine melting temperatures (Tm) us i ng Bol tzmann s i g moi dal analys is .
Table S3. Thermal shift data for compounds with P fKRS1, Cp KRS a nd Hs KRS.
Com poun d Eff ects o n Lys R S M elti ng Tem pe ratu re ( ∆Tm) […]

[2] = read-out: ΔTm PfKRS, ATP + Lysine
[3] = read-out: ΔTm PfKRS, no substrate

Sequence of PfKRS1 (Q8IDJ8 77-583): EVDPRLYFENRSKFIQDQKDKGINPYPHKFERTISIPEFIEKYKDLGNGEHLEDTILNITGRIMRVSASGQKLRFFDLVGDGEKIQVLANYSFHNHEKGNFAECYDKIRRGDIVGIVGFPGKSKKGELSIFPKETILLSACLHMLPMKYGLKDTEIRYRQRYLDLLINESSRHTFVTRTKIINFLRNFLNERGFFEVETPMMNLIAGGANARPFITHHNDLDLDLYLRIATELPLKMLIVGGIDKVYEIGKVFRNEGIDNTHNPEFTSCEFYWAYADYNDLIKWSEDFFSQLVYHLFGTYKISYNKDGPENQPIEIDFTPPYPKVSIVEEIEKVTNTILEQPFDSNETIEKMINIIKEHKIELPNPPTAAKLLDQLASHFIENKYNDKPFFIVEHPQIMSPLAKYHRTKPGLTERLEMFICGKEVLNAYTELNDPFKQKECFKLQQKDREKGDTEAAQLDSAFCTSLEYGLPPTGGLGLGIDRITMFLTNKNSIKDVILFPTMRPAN

SMILES	EC50 (HepG2 cells) [µM]	MLM CLi [1] [mL/min/g]	ΔTm at 40 µM (PfKRS1; [2]) [°C]	ΔTm at 40 µM (PfKRS1; read-out: ΔTm PfKRS, ATP) [°C]	ΔTm at 40 µM (PfKRS1; read-out: ΔTm PfKRS, Lysine) [°C]	ΔTm at 40 µM (PfKRS1; [3]) [°C]	Microsomal stability CLint [1] [mL⋅min^−1⋅g^−1]	ΔTm at 40 µM (PfKRS1; ATP + Lysine, read-out: ΔTm PfKRS) [°C]	ΔTm at 40 µM (PfKRS1; ATP, read-out: ΔTm PfKRS) [°C]	ΔTm at 40 µM (PfKRS1; Lysine, read-out: ΔTm PfKRS) [°C]	ΔTm at 40 µM (PfKRS1; no substrate, read-out: ΔTm PfKRS) [°C]
O=C(NCC1(O)CCCCC1)c1cc(=O)c2cc(F)ccc2o1 [Compound 4]	32	3	5.1	0.5	7.5	0.9	–	–	–	–	–
O=C(NCC1(O)CCC(F)(F)CC1)c1cc(=O)c2cc(F)ccc2o1 [Compound 5]	49	1	5.3	0.9	7.5	1.3	1	–	–	–	–
O=C(NCC1CCCCC1)c1cc(=O)c2ccccc2o1 [Compound 2]	> 50	> 50	5.1	0.9	7.4	1.2	> 50	–	–	–	–
O=C(NCC1CCCCC1)c1cc(=O)c2cc(F)ccc2o1 [Compound 3]	> 50	23	2.4	0.2	5.3	0.5	–	–	–	–	–
C[C@H]1CCC[C@H](C[C@H]2Cc3cc(O)cc(O)c3C(=O)O2)O1 [Compound 1, cladosporin, reference compound]	> 50	20	–	–	–	–	–	7.2	3.5	9.3	3.4
